ChEMBL document CHEMBL6078680, “Improving the Stability and Anti-Infective Activity of Sea Turtle AMPs Using Multiple Structural Modification Strategies” (J Med Chem, 2024)
Calls of active or inactive are those of the source. The calls are words filed in the database; no cut-off is given here. Positions of bridges follow the written chain, without caps; N, C: chain ends. Non-standard residues stand in square brackets, D forms with d. Residues, ends and D or L forms follow the SMILES beside them. Orn = NCCC[C@H](N)C(=O)O

Legend:
Acinetobacter baumannii [1] = test: Antibiofilm activity against Acinetobacter baumannii ATCC 19606 assessed as inhibition of biofilm formation at 4 to 8 times MIC incubated for 48 hrs by crystal violet staining based analysis; format: functional
Trypsin [2] = molecular target: T1, Trypsin (Homo sapiens, UniProt P07477+P07478+P35030); test: Stability of compound assessed as trypsin (unknown origin) mediated drug degradation […] measured at 24 hrs by RP-HPLC analysis; format: ADME, protein assay; settings: read-out: Activity
Staphylococcus aureus [3] = test: Antibiofilm activity against Staphylococcus aureus CMCC 26003 assessed as reduction in biofilm formation at 0.5 times MIC incubated for 24 hrs by crystal violet staining based analysis; format: functional; parameters: scale not given: the % may be the effect or the level left
Escherichia coli [4] = test: Antibacterial activity against Escherichia coli ATCC 25922 at 1 times MIC in presence of 25 microg/ml exogenous DNA; format: functional, organism-based
Acinetobacter baumannii [5] = test: Antipersister-activity against Acinetobacter baumannii ATCC 19606 assessed as elimination of persister cells at 8 times MIC preincubated adherent persistent cells with colistin incubation for 24 hrs; format: functional
Staphylococcus aureus [6] = test: Antibiofilm activity against Staphylococcus aureus CMCC 26003 assessed as biofilm eradication incubated for 24 hrs by crystal violet staining based analysis; format: functional, organism-based
Staphylococcus aureus [7] = test: Antibacterial activity against Staphylococcus aureus CMCC 26003 assessed as increase in intracellular ROS production incubated for 1 hr by DCFH-DA staining based assay; format: functional, organism-based
Staphylococcus aureus [8] = test: Antimicrobial activity against Staphylococcus aureus CMCC 26003 assessed as fold increase in MIC incubated for 18 hrs in presence of CCCP; format: functional
[9] = test system: Staphylococcus epidermidis; test: Antimicrobial activity against Staphylococcus epidermidis assessed as reduction in microbial growth incubated for 18 hrs by broth microdilution method; format: functional
Staphylococcus aureus [10] = test: Bactericidal activity against Staphylococcus aureus CMCC 26003 assessed as bacterial eradication incubated at 0.5 hrs in presence of thiourea; format: functional, organism-based
Staphylococcus aureus [11] = test: Antibiofilm activity against Staphylococcus aureus CMCC 26003 assessed as biofilm eradication at 8 times MIC incubated for 24 hrs by crystal violet staining based analysis; format: functional
Escherichia coli [12] = test: Antimicrobial activity against Escherichia coli ATCC 25922 measured at 8 hrs in presence of mouse serum; format: functional, organism-based
Cell membrane [13] = test: Induction of outer membrane permeabilization in Escherichia coli ATCC 25922 at 5 times MIC measured for 1 hr by NPN-dye based fluorescence analysis; format: subcellular
[14] = Acute toxicity in BALB/c mouse assessed as mortality at 20 mg/kg, iv measured for 24 hrs; format: organism-based; settings: in vivo, read-out: Activity
Enterococcus faecalis = test: Antimicrobial activity against Enterococcus faecalis ATCC 29217 assessed as reduction in microbial growth incubated for 18 hrs by broth microdilution method; format: functional
[15] = Acute toxicity in BALB/c mouse assessed as mortality at 15 mg/kg, iv measured for 24 hrs; format: organism-based; settings: in vivo, read-out: Activity
[16] = Acute toxicity in BALB/c mouse assessed as mortality at 50 mg/kg, iv measured for 24 hrs; format: organism-based; settings: in vivo, read-out: Activity
Escherichia coli [17] = test: Antibacterial activity against Escherichia coli ATCC 25922 assessed as increase in intracellular ROS production at 2 to 5 times MIC by DCFH-DA staining based assay; format: functional, organism-based
Cell membrane [18] = test: Induction of cell membrane permeabilization in Escherichia coli ATCC 25922 at 2 times MIC measured for 1 hr by propidium iodide dye-based fluorescence assay; format: subcellular
Acinetobacter baumannii [19] = test: Antimicrobial activity against Acinetobacter baumannii ATCC 19606 assessed as fold increase in MIC incubated for 18 hrs in presence of phosphatidylglycerol; format: functional
Escherichia coli [20] = test: Antimicrobial activity against Escherichia coli ATCC 25922 assessed as fold increase in MIC incubated for 18 hrs in presence of cardiolipin; format: functional
Staphylococcus aureus [21] = test: Antimicrobial activity against Staphylococcus aureus CMCC 26003 assessed as fold increase in MIC measured at 8 hrs in presence of mouse serum; format: functional
Escherichia coli [22] = test: Antimicrobial activity against Escherichia coli ATCC 25922 incubated for 18 hrs in presence of CCCP; format: functional, organism-based
Escherichia coli [23] = test: Antimicrobial activity against Escherichia coli ATCC 25922 assessed as fold increase in MIC measured at 8 hrs in presence of mouse serum; format: functional
Escherichia coli [24] = test: Antimicrobial activity against Escherichia coli ATCC 25922 assessed as fold increase in MIC incubated for 18 hrs in presence of phosphatidylglycerol; format: functional
Staphylococcus aureus [25] = test: Antibiofilm activity against Staphylococcus aureus CMCC 26003 assessed as reduction in biofilm formation at 0.5 to 8 times MIC incubated for 24 hrs by crystal violet staining based analysis; format: functional; parameters: scale not given: the % may be the effect or the level left
Escherichia coli [26] = test: Bactericidal activity against Escherichia coli ATCC 25922 at 5 times MIC measured within 120 mins; format: functional, organism-based
Staphylococcus aureus [27] = test: Antimicrobial activity against Staphylococcus aureus CMCC 26003 assessed as bacterial eradication at 5 times MIC measured within 120 mins; format: functional, organism-based
RAW264.7 = test: Cytotoxicity against mouse RAW264.7 cells upto 200 microg/ml by MTT assay; format: toxicity, cell-based; settings: dose < 200 µg/ml
Staphylococcus aureus [28] = test: Antimicrobial activity against Staphylococcus aureus CMCC 26003 incubated for 18 hrs in presence of CCCP; format: functional, organism-based
Acinetobacter baumannii [29] = test: Antimicrobial activity against Acinetobacter baumannii ATCC 19606 assessed as fold increase in MIC incubated for 18 hrs in presence of cardiolipin; format: functional
Escherichia coli [30] = test: Antimicrobial activity against Escherichia coli ATCC 25922 assessed as bacterial eradication at 5 times MIC measured within 30 mins; format: functional, organism-based
Cell membrane [31] = test: Induction of cell membrane permeabilization in Escherichia coli ATCC 25922 by propidium iodide dye-based fluorescence assay; format: subcellular
HaCaT = test: Cytotoxicity against human HaCaT cells assessed as survival rate at 100 microg/ml; format: functional; settings: read-out: Survival
Cell membrane [32] = test: Induction of […] membrane permeabilization in Escherichia coli ATCC 25922 at 5 times MIC measured for 1 hr by NPN-dye based fluorescence analysis; format: subcellular
Trypsin [33] = molecular target: T1, Trypsin; test: Stability of compound assessed as trypsin (unknown origin) mediated drug degradation […] measured at 6 hrs by RP-HPLC analysis; format: ADME, protein assay; settings: read-out: Activity
Escherichia coli [34] = test: Antimicrobial activity against Escherichia coli ATCC 25922 assessed as fold increase in MIC incubated for 18 hrs in presence of LPS; format: functional
Peritoneal macrophage = test: Cytotoxicity against mouse Peritoneal macrophage cells assessed as survival rate at 100 microg/ml; format: functional; settings: read-out: Survival
Acinetobacter baumannii [35] = test: Antimicrobial activity against Acinetobacter baumannii ATCC 19606 assessed as fold increase in MIC incubated for 18 hrs in presence of LPS; format: functional
Acinetobacter baumannii [36] = test: Antipersister-activity against Acinetobacter baumannii ATCC 19606 assessed as elimination of persister cells at 4 times MIC preincubated adherent persistent cells with colistin incubation for 24 hrs; format: functional
Cell membrane [37] = test: Induction of cell membrane permeabilization in Staphylococcus aureus CMCC 26003 at 5 times MIC measured for 1 hr by propidium iodide dye-based fluorescence assay; format: subcellular
Acinetobacter baumannii [38] = test: In vivo antibacterial activity against Acinetobacter baumannii ATCC19606 infected in BALB/c mouse assessed as reduction in bacterial load in abdominal cavity at 15 mg/kg, ip measured after 12 hrs; format: functional, organism-based

SMILES	inhibition (INH) (Acinetobacter baumannii [1])	metabolised at 24 h (Trypsin [2])	Activity (Staphylococcus aureus [3])	Activity (Escherichia coli [4])	Activity (Staphylococcus aureus [6])	Activity (Staphylococcus aureus [7])	fold change (FC) (Staphylococcus aureus [8])	MIC [9]	Activity (Staphylococcus aureus [10])	Activity (Staphylococcus aureus [11])	Activity (Cell membrane [13])	mortality at 24 h [14]	MIC (Enterococcus faecalis)	mortality at 24 h [15]	mortality at 24 h [16]	Activity (Escherichia coli [17])	Activity (Cell membrane [18])	fold change (FC) (Acinetobacter baumannii [19])	fold change (FC) (Escherichia coli [20])	fold change (FC) (Escherichia coli [24])	other results
CC[C@H](C)[C@H](NC(=O)[C@@H](CCCNC(=N)N)NC(=O)[C@H](CO)NC(=O)[C@H](Cc1c[nH]cn1)NC(=O)[C@@H](CCCNC(=N)N)NC(=O)[C@H](CC(C)C)NC(=O)[C@@H](NC(=O)[C@@H](CCCNC(=N)N)NC(=O)CNC(=O)[C@H](CC(C)C)NC(=O)[C@H](CCC(N)=O)NC(=O)[C@@H](CCCCN)NC(=O)[C@@H](CCCNC(=N)N)NC(=O)[C@@H](NC(=O)[C@@H](CCCCN)NC(=O)[C@@H](CCCCN)NC(=O)[C@@H](N)Cc1ccccc1)C(C)C)C(C)C)C(=O)N[C@H](C(=O)N[C@H](C(=O)NCC(=O)NCC(=O)N[C@H](CCCNC(=N)N)C(=O)N[C@@H](CCSC)C(=O)N[C@H](CCCNC(=N)N)C(=O)N[C@@H](Cc1ccccc1)C(=O)O)C(C)C)[C@@H](C)O	80%	< 60%	20%	inactive	Active	Dose-dependent-effect	32	75 µg/mL	Active	50%	100%	33%	37.5 µg/mL	0%	0%	Active	–	–	–	–	Activity (Acinetobacter baumannii [5]): 97.1%; Activity (Escherichia coli [12]): inactive
CC[C@H](C)[C@H](NC(=O)[C@H](CCCNC(=N)N)NC(=O)[C@H](CO)NC(=O)[C@H](Cc1c[nH]cn1)NC(=O)[C@H](CCCNC(=N)N)NC(=O)[C@H](CC(C)C)NC(=O)[C@@H](NC(=O)[C@H](CCCNC(=N)N)NC(=O)CNC(=O)[C@H](CC(C)C)NC(=O)[C@H](CCC(N)=O)NC(=O)[C@H](CCCCN)NC(=O)[C@H](CCCNC(=N)N)NC(=O)[C@@H](NC(=O)[C@H](CCCCN)NC(=O)[C@H](CCCCN)NC(=O)[C@@H](N)Cc1ccccc1)C(C)C)C(C)C)C(=O)N[C@H](C(=O)N[C@H](C(=O)NCC(=O)NCC(=O)N[C@@H](CCCNC(=N)N)C(=O)N[C@@H](CCSC)C(=O)N[C@@H](CCCNC(=N)N)C(=O)N[C@@H](Cc1ccccc1)C(=O)O)C(C)C)[C@@H](C)O	–	–	20%	–	Active	Dose-dependent-effect	–	18.8 µg/mL	Active	–	–	0%	4.69 µg/mL	0%	16.7%	Active	> 90%	16	8	16	fold change (FC) (Staphylococcus aureus [21]): 16; Activity (Escherichia coli [22]): Dose-dependent-effect; fold change (FC) (Escherichia coli [23]): 8; Activity (Staphylococcus aureus [25]): 40%; Activity (Escherichia coli [26]): Active; Activity (Staphylococcus aureus [27]): Active; Activity (RAW264.7): Non-toxic; Activity (Staphylococcus aureus [28]): Dose-dependent-effect; fold change (FC) (Acinetobacter baumannii [29]): 8; Activity (Escherichia coli [30]): Active; Activity (Cell membrane [31]): Dose-dependent-effect
CC[C@H](C)[C@H](NC(=O)[C@H](CCCNC(=N)N)NC(=O)[C@H](CO)NC(=O)[C@@H]1CSSC[C@H](N)C(=O)N[C@@H](Cc2ccccc2)C(=O)N[C@@H](CCCCN)C(=O)N[C@@H](CCCCN)C(=O)N[C@@H](C(C)C)C(=O)N[C@@H](CCCNC(=N)N)C(=O)N[C@@H](CCCCN)C(=O)N[C@@H](CCC(N)=O)C(=O)N[C@@H](CC(C)C)C(=O)NCC(=O)N[C@@H](CCCNC(=N)N)C(=O)N[C@@H](C(C)C)C(=O)N[C@@H](CC(C)C)C(=O)N[C@@H](CCCNC(=N)N)C(=O)N[C@@H](Cc2c[nH]cn2)C(=O)N1)C(=O)N[C@H](C(=O)N[C@H](C(=O)NCC(=O)NCC(=O)N[C@@H](CCCNC(=N)N)C(=O)N[C@@H](CCSC)C(=O)N[C@@H](CCCNC(=N)N)C(=O)N[C@@H](Cc1ccccc1)C(=O)O)C(C)C)[C@@H](C)O (H-CFKKVRKQLGRVLRHCSRITVGGRMRF-OH; disulfide 1-16)	80%	–	20%	–	Active	Dose-dependent-effect	32	9.38 µg/mL	–	74.3%	–	100%	37.5 µg/mL	0%	50%	–	–	16	8	16	viability at 100 µg/mL (HaCaT): > 80%; Activity (Cell membrane [32]): Active; metabolised at 6 h (Trypsin [33]): 68%; fold change (FC) (Escherichia coli [34]): 4; viability at 100 µg/mL (Peritoneal macrophage): > 80%; fold change (FC) (Acinetobacter baumannii [35]): 4; fold change (FC) (Acinetobacter baumannii [29]): 8
CC[C@H](C)[C@H](NC(=O)[C@H](CCCN)NC(=O)[C@H](CO)NC(=O)[C@H](Cc1c[nH]cn1)NC(=O)[C@H](CCCN)NC(=O)[C@H](CC(C)C)NC(=O)[C@@H](NC(=O)[C@H](CCCN)NC(=O)CNC(=O)[C@H](CC(C)C)NC(=O)[C@H](CCC(N)=O)NC(=O)[C@H](CCCN)NC(=O)[C@H](CCCN)NC(=O)[C@@H](NC(=O)[C@H](CCCN)NC(=O)[C@H](CCCN)NC(=O)[C@@H](N)Cc1ccccc1)C(C)C)C(C)C)C(=O)N[C@H](C(=O)N[C@H](C(=O)NCC(=O)NCC(=O)N[C@@H](CCCN)C(=O)N[C@@H](CCSC)C(=O)N[C@@H](CCCN)C(=O)N[C@@H](Cc1ccccc1)C(=O)O)C(C)C)[C@@H](C)O (H-F[Orn][Orn]V[Orn][Orn]QLG[Orn]VL[Orn]HS[Orn]ITVGG[Orn]M[Orn]F-OH)	–	< 60%	20%	inactive	Active	Dose-dependent-effect	32	18.8 µg/mL	Active	50%	100%	0%	18.8 µg/mL	0%	0%	Active	> 90%	–	–	–	Activity (Acinetobacter baumannii [36]): 74.5%; fold change (FC) (Escherichia coli [34]): 16; Activity (Cell membrane [37]): 24.6%; fold change (FC) (Acinetobacter baumannii [35]): 16; Activity (RAW264.7): Non-toxic; Activity (Acinetobacter baumannii [38]): Active; Activity (Cell membrane [31]): Dose-dependent-effect
